Measurements taken from the supplement of paper PMC11061612.

Key:
[1] = compound: CC(=O)c1c(C)c2cnc(Nc3ccc(N4CCNCC4)cn3)nc2n(C2CCCC2)c1=O [Palbociclib]; conditions: max 10 µM
In short: (§1)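 Cancer cell lines were seeded in 1536-well plates in 7.5 μl DMEM/F12 or RPMI with 10% FBS, held 24 hours at 37°C and 5% CO2, then dosed for 72 hours (final DMSO typically 0.2%). Viability was read by CellTiter-Glo 2.0 luminescence and scaled between blank-well and DMSO-well means. The single-agent IC50 comes from dose responses fitted to a two-parameter logistic curve with a non-linear mixed effects model.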

[2] = compound: C=CCn1c(=O)c2cnc(Nc3ccc(N4CCN(C)CC4)cc3)nc2n1-c1cccc(C(C)(C)O)n1 [AZD1775]; conditions: max 3 µM
In short: as §1

[3] = compound: C[C@@H](c1ccc2nccn2c1)n1nnc2ncc(-c3cnn(C)c3)nc21 [Savolitinib]; conditions: max 1 µM
In short: as §1

[4] = compound: COc1cc([C@@H]2c3cc4c(cc3[C@@H](O[C@@H]3O[C@@H]5CO[C@@H](C)O[C@H]5[C@H](O)[C@H]3O)[C@H]3COC(=O)[C@H]23)OCO4)cc(OC)c1O [Etoposide]; conditions: max 10 µM
In short: as §1

[5] = compound: O=C(Nc1ccc2[nH]nc(-c3ccncc3)c2c1)[C@@H]1CCN(CC(=O)N2CCN(c3ccc(-c4ncccn4)cc3)CC2)C1; conditions: max 5 µM
In short: as §1

[6] = compound: CN(C)CCCOc1ccc(-c2ccc3ncc4c(c3c2)n(C2CCOCC2)c(=O)n4C)cn1 [AZD0156]; conditions: max 3 µM
In short: as §1

[7] = compound: COc1cccc(OCCCN)c1-c1cc(Nc2cnc(C#N)cn2)n[nH]1 [Prexasertib]; conditions: max 1 µM
In short: as §1

[8] = compound: CC(=O)Nc1cccc(-n2c(=O)n(C3CC3)c(=O)c3c(Nc4ccc(I)cc4F)n(C)c(=O)c(C)c32)c1 [Trametinib]; conditions: max 1 µM
In short: as §1

[9] = compound: COc1cccc2c1C(=O)c1c(O)c3c(c(O)c1C2=O)C[C@@](O)(C(=O)CO)C[C@@H]3O[C@H]1C[C@H](N)[C@H](O)[C@H](C)O1 [Doxorubicin]; conditions: max 1 µM
In short: as §1

[10] = compound: CS(=O)(=O)CCNCc1ccc(-c2ccc3ncnc(Nc4ccc(OCc5cccc(F)c5)c(Cl)c4)c3c2)o1 [Lapatinib]; conditions: max 10 µM
In short: as §1

[11] = compound: Cc1c2c(nn1C)CSCc1cc(n(C)n1)CSc1cc(c3ccccc3c1)OCCCc1c(C(=O)O)n(C)c3c-2c(Cl)ccc13 [AZD5991]; conditions: max 1 µM
In short: as §1

[12] = compound: N#Cc1cnc(Nc2cc(NC[C@H]3CNCCO3)c(C(F)(F)F)cn2)cn1 [SRA737]; conditions: max 10 µM
In short: as §1

[13] = compound: CC1=C(C(=CC=C1)Cl)NC(=O)C2=CN=C(S2)NC3=CC(=NC(=N3)C)N4CCN(CC4)CCO [Dasatinib]; conditions: max 2 µM
In short: as §1

[14] = compound: Cn1cnc2c(F)c(Nc3ccc(Br)cc3Cl)c(C(=O)NOCCO)cc21 [Selumetinib]; conditions: max 10 µM
In short: as §1

[15] = compound: C[C@@H](Oc1cc(-c2cnn(C3CCNCC3)c2)cnc1N)c1c(Cl)ccc(F)c1Cl [Crizotinib]; conditions: max 10 µM
In short: as §1

[16] = compound: Cc1cc2ncnn2cc1Nc1ncc2c(n1)n(C1CCOCC1)c(=O)n2C [AZD7648]; conditions: max 10 µM
In short: as §1

[17] = compound: Cc1nc(-c2cn3c(n2)-c2ccc(-c4cnn(C(C)(C)C(N)=O)c4)cc2OCC3)n(C(C)C)n1 [Taselisib]; conditions: max 10 µM
In short: as §1

[18] = compound: Nc1ccn([C@@H]2O[C@H](CO)[C@@H](O)C2(F)F)c(=O)n1 [Gemcitabine]; conditions: max 0.3 µM
In short: as §1

[19] = compound: COc1cc(Nc2ncc3c(n2)-c2ccc(Cl)cc2C(c2c(F)cccc2OC)=NC3)ccc1C(=O)O [Alisertib]; conditions: max 10 µM
In short: as §1

[20] = compound: CC(C)n1c(=O)n(C)c2cnc3cc(F)c(-c4ccc(OCCCN5CCCCC5)nc4)cc3c21 [AZD1390]; conditions: max 0.3 µM
In short: as §1

[21] = compound: C[C@@H](Nc1cc(F)cc(F)c1)c1cc(C(=O)N(C)C)cc2c(=O)cc(N3CCOCC3)oc12 [AZD8186]; conditions: max 10 µM
In short: as §1

[22] = compound: C1CC(C1)(C(=O)[O-])C(=O)[O-].N.N.[Pt+2] [Carboplatin]; conditions: max 10 µM
In short: as §1

[23] = compound: COc1cc2ncnc(Nc3ccc(F)c(Cl)c3)c2cc1OCCCN1CCOCC1 [Gefitinib]; conditions: max 10 µM
In short: as §1

[24] = compound: CN(CC[C@H](CSC1=CC=CC=C1)NC2=C(C=C(C=C2)S(=O)(=O)NC(=O)C3=CC=C(C=C3)N4CCC(CC4)[C@H](C5=CC=CC=C5C6=CC=C(C=C6)Cl)O)S(=O)(=O)C(F)(F)F)CCO [AZD4320]; conditions: max 1 µM
In short: as §1

[25] = compound: O=c1[nH]cc(F)c(=O)[nH]1 [5-Fluorouracil]; conditions: max 20 µM
In short: as §1

[26] = compound: CC1(C)CCC(CN2CCN(c3ccc(C(=O)NS(=O)(=O)c4ccc(NCC5CCOCC5)c([N+](=O)[O-])c4)c(Oc4cnc5[nH]ccc5c4)c3)CC2)=C(c2ccc(Cl)cc2)C1 [Venetoclax]; conditions: max 1 µM
In short: as §1

[27] = compound: NC1(c2ccc(-c3nc4ccn5c(=O)[nH]nc5c4cc3-c3ccccc3)cc2)CCC1 [MK-2206]; conditions: max 10 µM
In short: as §1

[28] = compound: C[C@@H]1COCCN1C2=NC(=NC(=C2)C3(CC3)[S@](=N)(=O)C)C4=C5C=CNC5=NC=C4 [AZD6738]; conditions: max 10 µM
In short: as §1

[29] = compound: CCN(CCO)CCCOc1ccc2c(Nc3cc(CC(=O)Nc4cccc(F)c4)[nH]n3)ncnc2c1 [AZD2811]; conditions: max 1 µM
In short: as §1

[30] = compound: CC(=O)O[C@H]1C(=O)[C@@]2(C)[C@H]([C@H](OC(=O)c3ccccc3)[C@]3(O)C[C@H](OC(=O)[C@H](O)[C@@H](NC(=O)c4ccccc4)c4ccccc4)C(C)=C1C3(C)C)[C@]1(OC(C)=O)CO[C@@H]1C[C@@H]2O [Paclitaxel]; conditions: max 3 µM
In short: as §1

[31] = compound: C1CN(CCC1(C(=O)N[C@@H](CCO)C2=CC=C(C=C2)Cl)N)C3=NC=NC4=C3C=CN4 [AZD5363]; conditions: max 10 µM
In short: as §1

[32] = compound: COc1nnc2ccc(N3CCC(c4ccc(OCCN5CCN(C)C(=O)[C@H]5C)cc4)CC3)nn12 [AZD5153]; conditions: max 1 µM
In short: as §1

[33] = compound: O=C(c1cc(Cc2n[nH]c(=O)c3ccccc23)ccc1F)N1CCN(C(=O)C2CC2)CC1 [Olaparib]; conditions: max 10 µM
In short: as §1

[34] = compound: CC1=CN2[C@@H](C1)C=NC3=CC(=C(C=C3C2=O)OC)OCCCCCOC4=C(C=C5C(=C4)N=C[C@@H]6CC(=CN6C5=O)C)OC [SG3199]; conditions: max 0.001 µM
In short: as §1

[35] = compound: CCc1c2c(nc3ccc(O)cc13)-c1cc3c(c(=O)n1C2)COC(=O)[C@]3(O)CC [SN-38]; conditions: max 0.3 µM
In short: as §1

Row | Cell Line | IC50, cell viability 72 h [1] | IC50, cell viability 72 h [2] | IC50, cell viability 72 h [3] | IC50, cell viability 72 h [4] | IC50, cell viability 72 h [5] | IC50, cell viability 72 h [6] | IC50, cell viability 72 h [7] | IC50, cell viability 72 h [8] | IC50, cell viability 72 h [9] | IC50, cell viability 72 h [10] | IC50, cell viability 72 h [11] | IC50, cell viability 72 h [12] | IC50, cell viability 72 h [13] | IC50, cell viability 72 h [14] | IC50, cell viability 72 h [15] | IC50, cell viability 72 h [16] | IC50, cell viability 72 h [17] | IC50, cell viability 72 h [18] | IC50, cell viability 72 h [19] | IC50, cell viability 72 h [20] | IC50, cell viability 72 h [21] | IC50, cell viability 72 h [22] | IC50, cell viability 72 h [23] | IC50, cell viability 72 h [24] | IC50, cell viability 72 h [25] | IC50, cell viability 72 h [26] | IC50, cell viability 72 h [27] | IC50, cell viability 72 h [28] | IC50, cell viability 72 h [29] | IC50, cell viability 72 h [30] | IC50, cell viability 72 h [31] | IC50, cell viability 72 h [32] | IC50, cell viability 72 h [33] | IC50, cell viability 72 h [34] | IC50, cell viability 72 h [35]
1 | LU-165 (Small Cell Lung Carcinoma) | > 10000 nM | 2940 nM | > 1000 nM | > 10000 nM | > 5000 nM | > 3000 nM | 220 nM | > 1000 nM | > 1000 nM | > 10000 nM | > 1000 nM | > 10000 nM | > 2000 nM | > 10000 nM | > 10000 nM | > 10000 nM | > 10000 nM | > 300 nM | > 10000 nM | > 300 nM | > 10000 nM | > 10000 nM | > 10000 nM | > 1000 nM | > 20000 nM | > 1000 nM | > 10000 nM | > 10000 nM | > 1000 nM | > 3000 nM | > 10000 nM | > 1000 nM | > 10000 nM | > 1 nM | > 300 nM
2 | MDA-MB-436 (Breast Carcinoma) | > 10000 nM | > 3000 nM | > 1000 nM | > 10000 nM | > 5000 nM | > 3000 nM | > 1000 nM | > 1000 nM | > 1000 nM | > 10000 nM | > 1000 nM | > 10000 nM | > 2000 nM | > 10000 nM | > 10000 nM | > 10000 nM | > 10000 nM | > 300 nM | > 10000 nM | > 300 nM | > 10000 nM | > 10000 nM | > 10000 nM | > 1000 nM | > 20000 nM | > 1000 nM | > 10000 nM | > 10000 nM | > 1000 nM | > 3000 nM | > 10000 nM | > 1000 nM | > 10000 nM | > 1 nM | 207 nM
3 | MHH-ES-1 (Ewing's Sarcoma) | > 10000 nM | 649 nM | > 1000 nM | 2700 nM | > 5000 nM | > 3000 nM | 212 nM | > 1000 nM | 425 nM | > 10000 nM | > 1000 nM | > 10000 nM | > 2000 nM | > 10000 nM | 3990 nM | > 10000 nM | 5810 nM | 15.9 nM | 319 nM | > 300 nM | > 10000 nM | > 10000 nM | > 10000 nM | > 1000 nM | > 20000 nM | > 1000 nM | > 10000 nM | > 10000 nM | 215 nM | 5.4 nM | > 10000 nM | 614 nM | 4150 nM | > 1 nM | 3.05 nM
